# Test results: patent US6737383B1, “Herbicidal oxadiazolidines” (priority 1999, dated 2004)
# Key:
# [1] = system: cocklebur; experiment: Test B pre/postemergence cocklebur; type: in vivo, Xanthium strumarium
# How it was run: (§1)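 Test chemicals in a non-phytotoxic solvent mixture with surfactant were sprayed preemergence onto planted seeds and postemergence onto plants 2 to 18 cm tall (1- to 4-leaf stage). After twelve to sixteen days in a greenhouse, injury was visually rated against untreated controls from 0 (no effect) to 10 (complete control).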
# [2] = system: crabgrass; experiment: Test B pre/postemergence crabgrass; type: in vivo, Digitaria sanguinalis
# How it was run: as §1
# [3] = system: velvetleaf; experiment: Test B pre/postemergence velvetleaf; type: in vivo, Abutilon theophrasti
# How it was run: as §1
# [4] = system: rice; experiment: Test B flood test rice; type: in vivo, Oryza sativa
# How it was run: (§2)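 Each value is a visual injury score relative to controls, with 10 meaning complete control and 0 no effect. Evaluation took place twelve to sixteen days after the 2-leaf-stage plants were treated and kept in the greenhouse.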
# [5] = system: blackgrass; experiment: Test B pre/postemergence blackgrass; type: in vivo, Alopecurus myosuroides
# How it was run: as §1
# [6] = system: purple nutsedge; experiment: Test B pre/postemergence purple nutsedge; type: in vivo, Cyperus rotundus
# How it was run: as §1
# [7] = system: morningglory; experiment: Test B pre/postemergence morningglory; type: in vivo, Ipomoea hederacea
# How it was run: as §1
# [8] = system: soybean; experiment: Test B pre/postemergence soybean; type: in vivo, Glycine max
# How it was run: as §1
# [9] = system: duck salad; experiment: Test B flood test duck salad; type: in vivo, Heteranthera limosa
# How it was run: as §2
# [10] = system: pigweed; experiment: Test B pre/postemergence pigweed; type: in vivo, Amaranthus retroflexus
# How it was run: as §1
# [11] = system: sugar beet; experiment: Test B pre/postemergence sugar beet; type: in vivo, Beta vulgaris
# How it was run: as §1
# [12] = system: wild oat; experiment: Test B pre/postemergence wild oat; type: in vivo, Avena fatua
# How it was run: as §1
# [13] = system: surinam grass; experiment: Test B pre/postemergence surinam grass; type: in vivo, Brachiaria decumbens
# How it was run: as §1
# [14] = system: rape; experiment: Test B pre/postemergence rape; type: in vivo, Brassica napus
# How it was run: as §1
# [15] = system: smallflower flatsedge; experiment: Test B flood test smallflower flatsedge; type: in vivo, Cyperus difformis
# How it was run: as §2
# [16] = system: bedstraw; experiment: Test B pre/postemergence bedstraw; type: in vivo, Galium aparine; conditions: Preemergence; for Bedstraw plant response rating: scale 0 to 10, 0 is no effect, 10 is complete control
# How it was run: as §1
# [17] = system: bamyardgrass; experiment: Test B flood test barnyardgrass; type: in vivo, Echinochloa crus-galli
# How it was run: as §2
# [18] = system: corn; experiment: Test B pre/postemergence corn; type: in vivo, Zea mays
# How it was run: as §1
# [19] = system: giant foxtail; experiment: Test B pre/postemergence giant foxtail; type: in vivo, Setaria faberii
# How it was run: as §1
# [20] = system: wheat; experiment: Test B pre/postemergence wheat; type: in vivo, Triticum aestivum
# How it was run: as §1
# [21] = Postemergence, Rate 62 g/ha, scale of 0 to 10, 0 is no effect, 10 is complete control
# [22] = Postemergence, Rate 125 g/ha, scale 0 to 10, 0 is no effect, 10 is complete control
# [23] = Postemergence, Rate 250 g/ha, scale 0 to 10
# [24] = Postemergence, Rate 500 g/ha, scale 0 to 10, 0 is no effect, 10 is complete control
# [25] = Preemergence, Rate 62 g/ha, scale of 0 to 10 where 0 is no effect and 10 is complete control
# [26] = Preemergence, Rate 125 g/ha, scale 0 to 10, 0 is no effect, 10 is complete control
# [27] = Preemergence, Rate 250 g/ha, scale 0 to 10, 0 is no effect, 10 is complete control
# [28] = Preemergence, Rate 500 g/ha, scale of 0 to 10 where 0 is no effect and 10 is complete control
# [29] = Rate 62 g/ha, flood test species, Pre-emergence, visual evaluation after twelve to sixteen days
# [30] = Rate 125 g/ha, under heading Pre-emergence, flood test species, visual evaluation after twelve to sixteen days
# [31] = Rate 250 g/ha, Pre-emergence (flood test species), scale 0 to 10, 0 is no effect, 10 is complete control
# [32] = Rate 500 g/ha, Pre-emergence section of Table B, 0 to 10 scale (0 no effect, 10 complete control)
structure (smiles),measurement,setting,value
CC(C)N(C(=O)n1oc(=O)n(CC2CC2)c1=O)c1ccc(F)cc1F [Compound 509],Cocklebur plant response rating,[1]; [21],0
same,Cocklebur plant response rating,[1]; [22],0
same,Cocklebur plant response rating,[1]; [23],0
same,"Plant response rating, Cocklebur",[1]; [24],4
same,"Plant response rating, Cocklebur",[1]; [25],0
same,Cocklebur plant response rating,[1]; [26],0
same,Cocklebur plant response rating,[1]; [27],0
same,Cocklebur plant response rating,[1]; [28],5
same,Crabgrass plant response rating,[2]; [21],3
same,Crabgrass plant response rating,[2]; [22],9
same,Crabgrass plant response rating,[2]; [23],9
same,"Plant response rating, Crabgrass",[2]; [24],9
same,"Plant response rating, Crabgrass",[2]; [25],3
same,Crabgrass plant response rating,[2]; [26],7
same,Crabgrass plant response rating,[2]; [28],10
same,Velvetleaf plant response rating,[3]; [21],2
same,Velvetleaf plant response rating,[3]; [22],4
same,"Plant response rating, Velvetleaf",[3]; [24],7
same,"Plant response rating, Velvetleaf",[3]; [25],3
same,Velvetleaf plant response rating,[3]; [26],6
same,Velvetleaf plant response rating,[3]; [28],8
same,"Plant response rating, Rice (0 to 10 scale, 0 is no effect, 10 is complete control)",[4]; [29],0
same,"Rice plant response rating (0 to 10 scale, 0 is no effect, 10 is complete control)",[4]; [30],0
same,Rice plant response rating,[4]; [31],0
same,Rice plant response rating,[4]; [32],0
same,Blackgrass plant response rating,[5]; [21],2
same,Blackgrass plant response rating,[5]; [22],5
same,Blackgrass plant response rating,[5]; [23],6
same,"Plant response rating, Blackgrass",[5]; [24],9
same,"Plant response rating, Blackgrass",[5]; [25],5
same,Blackgrass plant response rating,[5]; [26],7
same,Blackgrass plant response rating,[5]; [27],8
same,Blackgrass plant response rating,[5]; [28],10
same,Nutsedge plant response rating,[6]; [21],0
same,Nutsedge plant response rating,[6]; [22],0
same,"Plant response rating, Nutsedge",[6]; [25],0
same,Nutsedge plant response rating,[6]; [26],0
same,Nutsedge plant response rating,[6]; [28],0
same,"Plant response rating, Morningglory",[7]; [24],5
same,"Plant response rating, Morningglory",[7]; [25],0
same,Morningglory plant response rating,[7]; [26],0
same,Morningglory plant response rating,[7]; [28],3
same,Soybean plant response rating,[8]; [21],1
same,Soybean plant response rating,[8]; [22],3
same,"Plant response rating, Soybean",[8]; [24],5
same,"Plant response rating, Soybean",[8]; [25],0
same,Soybean plant response rating,[8]; [26],0
same,"Plant response rating, Ducksalad (0 to 10 scale, 0 is no effect, 10 is complete control)",[9]; [29],0
same,"Ducksalad plant response rating (0 to 10 scale, 0 is no effect, 10 is complete control)",[9]; [30],0
same,Ducksalad plant response rating,[9]; [31],0
same,Ducksalad plant response rating,[9]; [32],0
same,Redroot pigweed plant response rating,[10]; [21],0
same,Redroot pigweed plant response rating,[10]; [22],0
same,"Plant response rating, Redroot pigweed",[10]; [24],5
same,"Plant response rating, Redroot pigweed",[10]; [25],0
same,Redroot pigweed plant response rating,[10]; [26],0
same,Redroot pigweed plant response rating,[10]; [28],10
same,Sugarbeets plant response rating,[11]; [21],0
same,Sugarbeets plant response rating,[11]; [22],0
same,"Plant response rating, Sugarbeets",[11]; [24],7
same,"Plant response rating, Sugarbeets",[11]; [25],0
same,Sugarbeets plant response rating,[11]; [26],4
same,Sugarbeets plant response rating,[11]; [28],7
same,Wild oats plant response rating,[12]; [21],0
same,Wild oats plant response rating,[12]; [22],0
same,"Plant response rating, Wild oats",[12]; [24],8
same,"Plant response rating, Wild oats",[12]; [25],0
same,Wild oats plant response rating,[12]; [26],2
same,Wild oats plant response rating,[12]; [28],9
same,B. signalgrass plant response rating,[13]; [21],0
same,B. signalgrass plant response rating,[13]; [22],0
same,B. signalgrass plant response rating,"[13]; Postemergence, Rate 250 g/ha, scale 0 to 10, 0 no effect, 10 complete control",2
same,"Plant response rating, B. signalgrass",[13]; [24],7
same,"Plant response rating, B. signalgrass",[13]; [25],2
same,B. signalgrass plant response rating,[13]; [26],3
same,B. signalgrass plant response rating,[13]; [27],8
same,B. signalgrass plant response rating,"[13]; Preemergence, Rate 500 g/ha, scale 0 to 10, 0 is no effect, 10 is complete control",9
same,Rape plant response rating,[14]; [21],0
same,Rape plant response rating,[14]; [22],0
same,"Plant response rating, Rape",[14]; [24],4
same,"Plant response rating, Rape",[14]; [25],0
same,Rape plant response rating,[14]; [26],0
same,Rape plant response rating,[14]; [28],10
same,"Plant response rating, S. Flatsedge (0 to 10 scale, 0 is no effect, 10 is complete control)",[15]; [29],0
same,"S. Flatsedge plant response rating (0 to 10 scale, 0 is no effect, 10 is complete control)",[15]; [30],0
same,S. Flatsedge plant response rating,[15]; [31],0
same,S. Flatsedge plant response rating,[15]; [32],0
same,"Plant response rating, Bedstraw","[16]; Rate 62 g/ha, scale of 0 to 10 where 0 is no effect and 10 is complete control",0
same,Bedstraw plant response rating,[16]; Rate 125 g/ha,0
same,Bedstraw plant response rating,[16]; Rate 250 g/ha,10
same,Bedstraw plant response rating,[16]; Rate 500 g/ha,9
same,"Plant response rating, Barnyardgrass (0 to 10 scale, 0 is no effect, 10 is complete control)",[17]; [29],0
same,"Barnyardgrass plant response rating (0 to 10 scale, 0 is no effect, 10 is complete control)",[17]; [30],0
same,Barnyardgrass plant response rating,[17]; [31],0
same,Barnyardgrass plant response rating,[17]; [32],0
same,Corn plant response rating,[18]; [21],0
same,Corn plant response rating,[18]; [22],0
same,Corn plant response rating,[18]; [23],0
same,"Plant response rating, Corn",[18]; [24],1
same,"Plant response rating, Corn",[18]; [25],0
same,Corn plant response rating,[18]; [26],0
same,Corn plant response rating,[18]; [28],6
same,Giant foxtail plant response rating,[19]; [21],3
same,Giant foxtail plant response rating,[19]; [22],7
same,"Plant response rating, Giant foxtail",[19]; [24],8
same,"Plant response rating, Giant foxtail",[19]; [25],9
same,Giant foxtail plant response rating,[19]; [26],9
same,Giant foxtail plant response rating,[19]; [28],10
same,Wheat plant response rating,[20]; [21],0
same,Wheat plant response rating,[20]; [22],0
same,"Plant response rating, Wheat",[20]; [24],2
same,"Plant response rating, Wheat",[20]; [25],0
same,Wheat plant response rating,[20]; [26],0
same,Wheat plant response rating,[20]; [28],7
